Marks after values point to notes of the source that are not given here.
Experiments:
Assay type in all cases: in vivo
[1] = tested on: mouse innate immune cells; experiment: CD40 and CD86 expression on mouse innate immune cells from spleen of NSG-TLR4^null mice (flow cytometry)
Procedure: (§1) (San Jose, Calif.), eBiosciences (San Diego, Calif.) or BioLegend, (San Diego, Calif.). […] Single-cell suspensions of bone marrow (BM) and spleen were prepared from engrafted mice, and whole blood was collected in heparin. Single cell suspensions of 1×10^6 cells in 50 μL or 100 μL of whole blood were washed with FACS buffer (PBS supplemented with 2% fetal bovine serum, (HyClone, Logan, Utah) and 0.02% sodium azide (Sigma, St. Louis, Mo.)) and then pre-incubated with rat anti-mouse FcR11b (clone 2.4G2, BD Biosciences) to block Fc binding. Specific antibodies were then added to the samples and incubated for 30 min at 4° C. Stained samples were then washed and fixed with 2% paraformaldehyde for cell suspensions or treated with BD FACS lysing solution for whole blood. At least 50,000 events were acquired on LSRII or FACSCalibur instruments (BD Biosciences). Data analysis was performed with FlowJo (Tree Star, Inc., Ashland, Oreg.) software. Ultra Pure lipopolysaccharide (LPS, E. coli 0111:B4 strain), and polyinosinic-polycytidylic (poly(I:C), high molecular weight, HMW) were purchased from Invivogen (San Diego, Calif.). The indicated mice were injected intraperitoneally (IP) with 100 μg of either LPS or poly(I:C). To confirm that NSG-TLR4^null mice are unable to respond to TLR4 agonists, NSG and NSG-TLR4^null mice were treated with LPS and the ability of innate immune cells to increase expression of phenotypic markers (Table I) and produce cytokines (FIG. 2) was evaluated.

[2] = tested on: mouse innate immune cells; experiment: CD40 and CD86 expression on mouse innate immune cells from spleen of NSG mice (flow cytometry); conditions: 100 μg IP, 24 hours
Procedure: as §1

[3] = tested on: mouse innate immune cells; experiment: Mouse serum cytokines by cytometric bead array in NSG-TLR4^null mice (unmanipulated or HSC-engrafted); conditions: in both NSG and NSG-TLR4^null mice, 100 μg IP, 24 hours
[4] = NSG-TLR4^null mice, 100 μg IP, 24 hours, spleen

Question: polyinosinic-polycytidylic [poly(IC)] was tested. Which “CD40 Expression, CD11b+ Macrophage” value [1, 4] did it give?
Answer: The value was 4168 ± 104.

Question: And the “CD40 Expression, CD11c+/CD11b+ DC” value [1, 4]?
Answer: Its value is 5035 ± 3278^b.

Question: And the “CD40 Expression, CD11c+/CD11b− DC” value [1, 4]?
Answer: The value was 16160 ± 3782^b.

Question: What about the “CD86 Expression, CD11b+ Macrophage” value [1, 4] of the same substance?
Answer: The value was 77.77 ± 15.96.

Question: And the “CD86 Expression, CD11c+/CD11b+ DC” value [1, 4]?
Answer: The value was 635 ± 57.7^b.

Question: What about the “CD86 Expression, CD11c+/CD11b− DC” value [1, 4] of the same substance?
Answer: The value was 1315 ± 82^b.

Question: What about the “induced increases in the expression of CD40 and CD86 on mouse innate immune cells” value ([1]; between NSG and NSG-TLR4^null mice) of the same substance?
Answer: Its value is “similar”.

Question: What about the “CD40 Expression, CD11b+ Macrophage” value [2] of the same substance?
Answer: Its value is 3909 ± 377.

Question: And the “CD40 Expression, CD11c+/CD11b+ DC” value [2]?
Answer: The value was 6860 ± 1276^b.

Question: And the “CD40 Expression, CD11c+/CD11b− DC” value [2]?
Answer: The value was 19935 ± 1020^b.

Question: What about the “CD86 Expression, CD11b+ Macrophage” value [2] of the same substance?
Answer: Its value is 68.27 ± 5.93.

Question: And the “CD86 Expression, CD11c+/CD11b+ DC” value [2]?
Answer: The value was 540.3 ± 40^b.

Question: What about the “CD86 Expression, CD11c+/CD11b− DC” value [2] of the same substance?
Answer: Its value is 1111 ± 141^c.

Question: What about the mouse cytokine response [3] of the same substance?
Answer: The mouse cytokine response was “similar”.

Source: patent US10021861B2, “Genetically modified non-human animals and methods relating to innate immune system response detection” (The Jackson Laboratory, priority 2013, dated 2018)
